# Test results taken from the NIST ThermoML archive (doi:10.1021/je100967k).
# Numbers after ± are expanded uncertainties.
# Assay: xn = mol fraction of the nth substance listed
# Details: 101 kPa, Liquid; for speed of sound: Pulse-echo method
smiles,measurement,setting,value
NCCO [2-aminoethan-1-ol] + CN1CCCC1=O,speed of sound,"293.15 K, x2 = 0",1735.9 ± 1.4 m/s
same,speed of sound,"293.15 K, x2 = 0.1",1701.7 ± 1.4 m/s
same,speed of sound,"293.15 K, x2 = 0.209",1673.2 ± 1.4 m/s
same,speed of sound,"293.15 K, x2 = 0.3",1649.8 ± 1.4 m/s
same,speed of sound,"293.15 K, x2 = 0.4",1630.1 ± 1.4 m/s
same,speed of sound,"293.15 K, x2 = 0.5",1613.2 ± 1.4 m/s
same,speed of sound,"293.15 K, x2 = 0.596",1599.1 ± 1.4 m/s
same,speed of sound,"293.15 K, x2 = 0.7",1587.7 ± 1.4 m/s
same,speed of sound,"293.15 K, x2 = 0.8",1578.6 ± 1.4 m/s
same,speed of sound,"293.15 K, x2 = 0.907",1571.4 ± 1.4 m/s
same,mass density,"293.15 K, x2 = 0",1016.65 ± 0.52 kg/m3
same,viscosity,"293.15 K, x2 = 0",24.61 ± 0.35 mPa·s
same,mass density,"293.15 K, x2 = 0.1",1017.8 ± 0.52 kg/m3
same,viscosity,"293.15 K, x2 = 0.1",17.43 ± 0.27 mPa·s
same,mass density,"293.15 K, x2 = 0.209",1019.27 ± 0.53 kg/m3
same,viscosity,"293.15 K, x2 = 0.209",11.99 ± 0.18 mPa·s
same,mass density,"293.15 K, x2 = 0.3",1020.59 ± 0.53 kg/m3
same,viscosity,"293.15 K, x2 = 0.3",8.496 ± 0.13 mPa·s
same,mass density,"293.15 K, x2 = 0.4",1022.06 ± 0.53 kg/m3
same,viscosity,"293.15 K, x2 = 0.4",6.211 ± 0.099 mPa·s
same,mass density,"293.15 K, x2 = 0.5",1023.46 ± 0.53 kg/m3
same,viscosity,"293.15 K, x2 = 0.5",4.761 ± 0.075 mPa·s
same,mass density,"293.15 K, x2 = 0.596",1024.91 ± 0.54 kg/m3
same,viscosity,"293.15 K, x2 = 0.596",3.622 ± 0.059 mPa·s
same,mass density,"293.15 K, x2 = 0.7",1026.57 ± 0.54 kg/m3
same,viscosity,"293.15 K, x2 = 0.7",2.883 ± 0.046 mPa·s
same,mass density,"293.15 K, x2 = 0.8",1028.4 ± 0.54 kg/m3
same,viscosity,"293.15 K, x2 = 0.8",2.401 ± 0.039 mPa·s
same,mass density,"293.15 K, x2 = 0.907",1030.5 ± 0.55 kg/m3
same,viscosity,"293.15 K, x2 = 0.907",2.089 ± 0.034 mPa·s
same,speed of sound,"303.15 K, x2 = 0",1703.7 ± 1.4 m/s
same,speed of sound,"303.15 K, x2 = 0.1",1668.1 ± 1.4 m/s
same,speed of sound,"303.15 K, x2 = 0.209",1638.4 ± 1.4 m/s
same,speed of sound,"303.15 K, x2 = 0.3",1613.8 ± 1.4 m/s
same,speed of sound,"303.15 K, x2 = 0.4",1593.6 ± 1.4 m/s
same,speed of sound,"303.15 K, x2 = 0.5",1576 ± 1.4 m/s
same,speed of sound,"303.15 K, x2 = 0.596",1561.2 ± 1.4 m/s
same,speed of sound,"303.15 K, x2 = 0.7",1549.8 ± 1.4 m/s
same,speed of sound,"303.15 K, x2 = 0.8",1540.5 ± 1.3 m/s
same,speed of sound,"303.15 K, x2 = 0.907",1532.7 ± 1.3 m/s
same,mass density,"303.15 K, x2 = 0",1008.74 ± 0.51 kg/m3
same,viscosity,"303.15 K, x2 = 0",14.96 ± 0.24 mPa·s
same,mass density,"303.15 K, x2 = 0.1",1009.8 ± 0.51 kg/m3
same,viscosity,"303.15 K, x2 = 0.1",10.93 ± 0.18 mPa·s
same,mass density,"303.15 K, x2 = 0.209",1011 ± 0.51 kg/m3
same,viscosity,"303.15 K, x2 = 0.209",7.985 ± 0.13 mPa·s
same,mass density,"303.15 K, x2 = 0.3",1012.1 ± 0.51 kg/m3
same,viscosity,"303.15 K, x2 = 0.3",5.834 ± 0.095 mPa·s
same,mass density,"303.15 K, x2 = 0.4",1013.5 ± 0.51 kg/m3
same,viscosity,"303.15 K, x2 = 0.4",4.433 ± 0.073 mPa·s
same,mass density,"303.15 K, x2 = 0.5",1014.9 ± 0.52 kg/m3
same,viscosity,"303.15 K, x2 = 0.5",3.752 ± 0.061 mPa·s
same,mass density,"303.15 K, x2 = 0.596",1016.3 ± 0.52 kg/m3
same,viscosity,"303.15 K, x2 = 0.596",2.822 ± 0.046 mPa·s
same,mass density,"303.15 K, x2 = 0.7",1018 ± 0.52 kg/m3
same,viscosity,"303.15 K, x2 = 0.7",2.296 ± 0.037 mPa·s
same,mass density,"303.15 K, x2 = 0.8",1019.7 ± 0.53 kg/m3
same,viscosity,"303.15 K, x2 = 0.8",1.95 ± 0.032 mPa·s
same,mass density,"303.15 K, x2 = 0.907",1021.72 ± 0.53 kg/m3
same,viscosity,"303.15 K, x2 = 0.907",1.725 ± 0.028 mPa·s
same,speed of sound,"313.15 K, x2 = 0",1671.2 ± 1.4 m/s
same,speed of sound,"313.15 K, x2 = 0.1",1634.1 ± 1.4 m/s
same,speed of sound,"313.15 K, x2 = 0.209",1603.1 ± 1.4 m/s
same,speed of sound,"313.15 K, x2 = 0.3",1578.6 ± 1.4 m/s
same,speed of sound,"313.15 K, x2 = 0.4",1557.3 ± 1.4 m/s
same,speed of sound,"313.15 K, x2 = 0.5",1538.9 ± 1.4 m/s
same,speed of sound,"313.15 K, x2 = 0.596",1523.9 ± 1.3 m/s
same,speed of sound,"313.15 K, x2 = 0.7",1512.1 ± 1.3 m/s
same,speed of sound,"313.15 K, x2 = 0.8",1502.6 ± 1.3 m/s
same,speed of sound,"313.15 K, x2 = 0.907",1494.4 ± 1.3 m/s
same,mass density,"313.15 K, x2 = 0",1000.77 ± 0.49 kg/m3
same,viscosity,"313.15 K, x2 = 0",9.839 ± 0.15 mPa·s
same,mass density,"313.15 K, x2 = 0.1",1001.6 ± 0.49 kg/m3
same,viscosity,"313.15 K, x2 = 0.1",7.429 ± 0.12 mPa·s
same,mass density,"313.15 K, x2 = 0.209",1002.38 ± 0.49 kg/m3
same,viscosity,"313.15 K, x2 = 0.209",5.559 ± 0.091 mPa·s
same,mass density,"313.15 K, x2 = 0.3",1003.2 ± 0.5 kg/m3
same,viscosity,"313.15 K, x2 = 0.3",4.278 ± 0.07 mPa·s
same,mass density,"313.15 K, x2 = 0.4",1004.2 ± 0.5 kg/m3
same,viscosity,"313.15 K, x2 = 0.4",3.358 ± 0.055 mPa·s
